In the SangsterLogP compilation one finds logP and logD data, which are given here for nine compounds.

One data set can be described thus: method code SF-AS, from PMID: 754638.
Details: not given
The logP is a log measure of how a compound divides between an organic and an aqueous phase. Compound `COc1cc(S(=O)(=O)CCO)cc(OC)c1OC` had a logP of 0.18.
For `C=CCS(=O)(=O)c1cc(OC)c(OC)c(OC)c1`, the logP amounted to 1.34.
With `CCCS(=O)(=O)c1cc(OC)c(OC)c(OC)c1`, the logP turned out to be 1.56.
The same measure, in the same setting: under `COc1cc(S(=O)(=O)CCC(C)C)cc(OC)c1OC` stands 2.12.
On the same count and under the same terms, under `COc1cc(S(=O)(=O)CC(O)c2ccccc2)cc(OC)c1OC` (centres undefined) stands 1.65; under `COc1cc(S(=O)(=O)CCN2CCOCC2)cc(OC)c1OC`, 1.29; under `CCS(=O)(=O)c1cc(OC)c(OC)c(OC)c1`, 1.05.

Still in this data set, the particulars now being: pH 7.3.
Usually logD stands for lipophilicity at a set pH, counting ionised and neutral species. Higher therefore signals higher lipophilicity. `CCCCN(C)CCS(=O)(=O)c1cc(OC)c(OC)c(OC)c1` displayed a logD of 2.05.
Still for that read-out and setting: the result for `COc1cc(S(=O)(=O)CCN2CCCCC2)cc(OC)c1OC` reads 1.6.
